Measurements published in publication PMC6021127 (Nature chemistry, 2017).
Like-named read-outs stand apart in the source and are kept apart here.

Key:
[1] = test system: NCI 60 cell line panel; assay: NCI 60 cell line panel evaluation; format: cell-based; conditions: read-out: mean GI50
[2] = test system: A2058 melanoma cell line; assay: Cytotoxicity against A2058 melanoma cells
[3] = test system: DU145 prostate cancer cell line; assay: Cytotoxicity against DU145 prostate cancer cells
[4] = test system: P388 murine leukemia cell lines; assay: Cytotoxicity against P388 murine leukemia cells
[5] = Homo sapiens, A2058, read-out: Cytotoxicity IC50, A2058
[6] = Homo sapiens, DU-145, read-out: Cytotoxicity IC50, DU145
[7] = read-out: Cytotoxicity IC50, A2058, A2058 melanoma cells
[8] = read-out: Cytotoxicity IC50, P388, P388 murine leukemia cells
[9] = read-out: Cytotoxicity IC50, DU145, DU145 prostate cancer cells

SMILES | IC50 [2, 5] [nM] | IC50 [3, 6] [nM] | IC50 [2, 7] [nM] | IC50 [4, 8] [nM] | IC50 [3, 9] [nM] | further results
C=C1[C@@H](O)C[C@H]2C(C)(C)C[C@H](Cl)C[C@]2(C)[C@H]1C[C@H](O)[C@H]1CC(=O)NC1=O [compound 3, chlorolissoclimide] | 250 | 490 | – | – | – | GI50 [1]: 15 nM
C=C1[C@@H](O)C[C@H]2C(C)(C)[C@@H](Cl)[C@H](Cl)C[C@]2(C)[C@H]1C[C@H](O)[C@H]1CC(=O)NC1=O [compound 4, dichlorolissoclimide, reference compound] | – | – | – | – | – | IC50 ([4]; Mus musculus, P388, read-out: Cytotoxicity IC50 against P388): ~400 nM
C[C@@H]1C[C@@H]([C@H](O)CC2CC(=O)NC(=O)C2)C(=O)[C@@H](C)C1 [compound 2, cycloheximide, reference compound] | > 10000 | > 10000 | – | – | – | IC50 ([4]; Mus musculus, P388, read-out: Cytotoxicity IC50, P388): 5600 nM
C=C1[C@@H](OC(C)=O)C[C@H]2C(C)(C)C[C@H](Cl)C[C@]2(C)[C@H]1C[C@H](O)[C@H]1CC(=O)NC1=O [compound 7] | – | – | 3460 | 2100 | 460 | –
C=C1[C@@H](O)C[C@H]2C(C)(C)CCC[C@]2(C)[C@H]1C[C@H](O)[C@H]1CC(=O)NC1=O [compound 8, haterumaimide Q] | – | – | 2340 | 200 | 1490 | –
COC(=O)C[C@](O)(CCCC(C)(C)O)C(=O)O[C@@H]1C(OC)=C[C@]23CCCN2CCc2cc4c(cc2[C@H]13)OCO4 [compound 1, homoharringtonine, reference compound] | 170 | 230 | – | – | – | –
